Results from patent publication US8007782B2, “Combination bacteriolytic therapy for the treatment of tumors” (priority 2003, dated 2011).
Where a SMILES comes first, the peptide text is derived from it. [ ]: non-standard residue; d: D form. The star is where a group is joined. Dolaproine = CO[C@@H]([C@@H]1CCCN1)[C@@H](C)C(=O)O; Dil = CC[C@H](C)[C@H](NC)[C@@H](CC(=O)O)OC; NMe2Val = CC(C)[C@@H](C(=O)*)N(C)C

Assays:
[1] = test system: HCT116 human colorectal cancer cells; experiment: Tumorigenicity assay, HCT116 xenografts in nude mice; assay type: in vivo; conditions: nude mice; for Effect alone: agent alone
Text: (§1) All animal protocols were designed in accordance with the Guide for the Care and Use of Laboratory Animals (NIH Publication 86-23) and were approved by the Johns Hopkins University Institutional Animal Care and Use Committee. Six to eight week old mice were implanted subcutaneously on one flank with 3 to 6 million cancer cells. Establishment of tumors of 150 to 500 mm3 took 8 to 21 days, depending on the cell type. C. novyi-NT spores (300×106) and anti-microtubule agents were generally administered by a single intravenous injection through the tail vein in a total volume of 300 to 500 ul phosphate-buffered saline (PBS). Quantitative assessment of tumor growth was performed by measuring subcutaneous tumor grafts (major and minor axis) using electronic calipers. Tumor volume was calculated using the equation: length×width2×0.5. Progression free survival was defined as the length of time following treatment before any increase in tumor volume was observed. Mice were considered “cured” if no tumor was evident three months after treatment. Animals were weighed at least twice a week and carefully observed for signs of toxicity every day for the first week following treatment and then twice a week thereafter. At least five mice were used for each treatment arm described in the Experimental Results.
The timing, route, and dose of agents are critical for the success of any experimental therapy. When two agents are combined, the number of variables that must be tested increases exponentially. To simplify interpretation of the comparisons between various anti-microtubule agents, pilot studies with representative drugs were performed.
Eighteen agents known to interact with microtubules were each tested in this manner in nude mice harboring xenografts of HCT116 human colorectal cancer cells. At least five mice harboring tumors of 150 to 500 mm3 in size were used for each experimental arm. Two classes of responses were noted. One type of response was characterized by a rapid hemorrhagic necrosis, observed only with agents that inhibited microtubule […] (FIG. 1A, B). The other type of response was characterized by a slow regression, observed with agents that stabilized microtubules (FIG. 2A, B).

[2] = Mortality following COBALT; assay type: in vivo, nude mice; conditions: deaths within one week, pooled xenograft models
Text: as §1
(§2) This toxicity was observed only when the combination of C. novyi-NT spores and the drugs was administered and not with either the bacteria or the drugs alone. […] Though major tumor regressions were common, few mice died as a result of therapy (Table 2) No deaths occurred after treatment with the microtubule stabilizers plus C. novyi-NT, while 4% to 8% of mice treated with microtubule destabilizers plus C. novyi-NT died. The only other toxicity observed was transient weight loss (Table 3). Mice treated with the drugs alone lost ˜5 to 10% of their body weight within 7 days, while weight loss after treatment with C. novyi-NT plus these drugs varied from 8% to 18%. All weights recovered to pre-treatment levels within two weeks.

Weight loss after COBALT = assay type: in vivo, nude mice; conditions: drug dose 24.0 mg/kg; maximum average weight loss relative to weight one day prior to treatment; HCT116 xenografts
Text: as §1, §2

[3] = 10 mg/kg × 1 (ip) with 3×108 C. novyi-NT spores iv
[4] = 20 mg/kg × 1 (iv) with 3×108 C. novyi-NT spores iv
[5] = 5 mg/kg × 1 (ip) with 3×108 C. novyi-NT spores iv
[6] = 15 mg/kg × 1 (iv) with 3×108 C. novyi-NT spores iv

Q: Which “Effect with C. novyi-NT” value ([1]; 50 mg/kg × 1 (ip) with 3×108 C. novyi-NT spores iv) does the source give for `COc1ccc(/C=C\c2cc(OC)c(OC)c(OC)c2)cc1OP(=O)(O)O` [combretastatin A4P] here?
A: +

Q: And the “Effect with C. novyi-NT” value ([1]; 200 mg/kg × 1 (ip) with 3×108 C. novyi-NT spores iv)?
A: +

Q: What about the Effect alone ([1]; 50 mg/kg × 1 (ip)) of the same compound?
A: 0

Q: What about the Effect alone ([1]; 200 mg/kg × 1 (ip)) of the same compound?
A: +

Q: Which results are given for `O=C(Nc1ccncc1)C(=O)c1cn(Cc2ccc(Cl)cc2)c2ccccc12` [D-24851]?
A: Effect with C. novyi-NT ([1]; 25 mg/kg × 1 (ip) with 3×108 C. novyi-NT spores iv): +; Effect with C. novyi-NT ([1]; 100 mg/kg × 1 (ip) with 3×108 C. novyi-NT spores iv): +; Effect alone ([1]; 25 mg/kg × 1 (ip)): 0; Effect alone ([1]; 100 mg/kg × 1 (ip)): 0

Q: With `CC[C@H](C)[C@@H]([C@@H](CC(=O)N1CCC[C@H]1[C@H](OC)[C@@H](C)C(=O)N[C@@H](Cc1ccccc1)c1nccs1)OC)N(C)C(=O)[C@@H](NC(=O)[C@H](C(C)C)N(C)C)C(C)C` [dolastatin 10] as the compound, how does the “Effect with C. novyi-NT” value ([1]; 0.30 mg/kg × 1 (iv) with 3×108 C. novyi-NT spores iv) read?
A: +++ (>50% shrinkage in tumor volume relative to pre-treatment size)

Q: And the “Effect with C. novyi-NT” value ([1]; 0.45 mg/kg × 1 (iv) with 3×108 C. novyi-NT spores iv)?
A: +++ (>50% shrinkage in tumor volume relative to pre-treatment size)

Q: And the Effect alone ([1]; 0.30 mg/kg × 1 (iv))?
A: 0

Q: And the Effect alone ([1]; 0.45 mg/kg × 1 (iv))?
A: 0

Q: Which results are given for arsenic trioxide?
A: Effect with C. novyi-NT [1, 3]: +; Effect alone ([1]; 10 mg/kg × 1 (ip)): 0

Q: Which “Effect with C. novyi-NT” value ([1]; 50 mg/kg × 1 (iv) with 3×108 C. novyi-NT spores iv) does the source give for `COc1ccc2c(c1OC)C(=O)O[C@@H]2[C@H]1c2c(cc3c(c2OC)OCO3)CCN1C` [noscapine] here?
A: +

Q: What about the “Effect with C. novyi-NT” value ([1]; 70 mg/kg × 1 (iv) with 3×108 C. novyi-NT spores iv) of the same compound?
A: +

Q: What about the Effect alone ([1]; 50 mg/kg × 1 (iv)) of the same compound?
A: 0

Q: What about the Effect alone ([1]; 70 mg/kg × 1 (iv)) of the same compound?
A: 0

Q: What does the source list for `CCC1=C[C@@H]2CN(C1)Cc1c([nH]c3ccccc13)[C@@](C(=O)OC)(c1cc3c(cc1OC)N(C)[C@H]1[C@@](O)(C(=O)OC)[C@H](OC(C)=O)[C@]4(CC)C=CCN5CC[C@]31[C@@H]54)C2` [vinorelbine]?
A: Effect with C. novyi-NT ([1]; 16 mg/kg × 1 (iv) with 3×108 C. novyi-NT spores iv): ++ (10% to 50% shrinkage in tumor volume relative to pre-treatment size); Effect with C. novyi-NT [1, 4]: +++ (>50% shrinkage in tumor volume relative to pre-treatment size); Effect with C. novyi-NT ([1]; 24 mg/kg × 1 (iv) with 3×108 C. novyi-NT spores iv): +++ (>50% shrinkage in tumor volume relative to pre-treatment size); Effect alone ([1]; 16 mg/kg × 1 (iv)): +; Effect alone ([1]; 20 mg/kg × 1 (iv)): +; Effect alone ([1]; 24 mg/kg × 1 (iv)): +; # dead (treatment-related deaths) ([2]; drug dose 16.0 mg/kg): 0; # dead (treatment-related deaths) ([2]; drug dose 20.0 mg/kg): 0; # dead (treatment-related deaths) ([2]; drug dose 24.0 mg/kg): 0; Weight Loss (%) (Weight loss after COBALT): 8.3%

Q: What does the source list for `CC[C@]1(O)C[C@@H]2CN(CCc3c([nH]c4ccccc34)[C@@](C(=O)OC)(c3cc4c(cc3OC)N(C)[C@H]3[C@@](O)(C(=O)OC)[C@H](OC(C)=O)[C@]5(CC)C=CCN6CC[C@]43[C@@H]65)C2)C1` [vinblastine]?
A: Effect with C. novyi-NT [1, 5]: 0; Effect with C. novyi-NT [1, 3]: +; Effect alone ([1]; 5 mg/kg × 1 (ip)): 0; Effect alone ([1]; 10 mg/kg × 1 (ip)): +

Q: With `C=C/C=C\[C@H](C)[C@H](OC(N)=O)[C@@H](C)[C@H](O)[C@@H](C)C/C(C)=C\[C@H](C)[C@@H](O)[C@@H](C)/C=C\[C@@H](O)C[C@@H]1OC(=O)[C@H](C)[C@@H](O)[C@H]1C` [discodermolide] as the compound, how does the “Effect with C. novyi-NT” value [1, 6] read?
A: ++++ (>20% cures)

Q: What about the “Effect with C. novyi-NT” value [1, 4] of the same compound?
A: ++++ (>20% cures)

Q: And the Effect alone ([1]; 15 mg/kg × 1 (iv))?
A: ++ (10% to 50% shrinkage in tumor volume relative to pre-treatment size)

Q: What about the Effect alone ([1]; 20 mg/kg × 1 (iv)) of the same compound?
A: ++ (10% to 50% shrinkage in tumor volume relative to pre-treatment size)

Q: What does the source list for `CC[C@H](C)[C@@H]([C@@H](CC(=O)N1CCC[C@H]1[C@H](OC)[C@@H](C)C(=O)NCCc1ccccc1)OC)N(C)C(=O)[C@@H](NC(=O)[C@H](C(C)C)N(C)C)C(C)C` [auristatin PE]?
A: Effect with C. novyi-NT ([1]; 2 (2.0) mg/kg × 1 (iv) with 3×108 C. novyi-NT spores iv): +; Effect alone ([1]; 2 (2.0) mg/kg × 1 (iv)): 0

Q: Which results are given for `CC[C@]1(O)C[C@H]2CN(CCc3c([nH]c4ccccc34)[C@@](C(=O)OC)(c3cc4c(cc3OC)N(C=O)[C@H]3[C@@](O)(C(=O)OC)[C@H](OC(C)=O)[C@]5(CC)C=CCN6CC[C@]43[C@@H]65)C2)C1` [vincristine]?
A: Effect with C. novyi-NT [1, 5]: 0; Effect with C. novyi-NT [1, 3]: +; Effect alone ([1]; 5 mg/kg × 1 (ip)): 0; Effect alone ([1]; 10 mg/kg × 1 (ip)): 0

Q: For `COc1cc2c(c(OC)c1OC)-c1ccc(OC)c(=O)cc1[C@@H](NC(C)=O)CC2` [colchicine], which “Effect with C. novyi-NT” value [1, 5] is on record?
A: +

Q: And the “Effect with C. novyi-NT” value [1, 3]?
A: +

Q: And the “Effect with C. novyi-NT” value ([1]; 20 mg/kg × 1 (ip) with 3×108 C. novyi-NT spores iv)?
A: ++ (10% to 50% shrinkage in tumor volume relative to pre-treatment size)

Q: And the Effect alone ([1]; 5 mg/kg × 1 (ip))?
A: +

Q: What about the Effect alone ([1]; 10 mg/kg × 1 (ip)) of the same compound?
A: +

Q: What about the Effect alone ([1]; 20 mg/kg × 1 (ip)) of the same compound?
A: ++ (10% to 50% shrinkage in tumor volume relative to pre-treatment size)

Q: With `CC[C@H](C)[C@@H]([C@@H](CC(=O)N1CCC[C@H]1[C@H](OC)[C@@H](C)C(=O)N[C@@H](Cc1ccccc1)C(=O)OC)OC)N(C)C(=O)[C@@H](NC(=O)[C@H](C(C)C)N(C)C)C(C)C` [auristatin PHE] (NMe2Val-V[Dil][Dolaproine]F-OMe) as the compound, how does the “Effect with C. novyi-NT” value ([1]; 0.2 mg/kg × 1 (iv) with 3×108 C. novyi-NT spores iv) read?
A: +

Q: What about the Effect alone ([1]; 0.2 mg/kg × 1 (iv)) of the same compound?
A: 0

Q: For `C/C(=C\c1csc(C)n1)[C@@H]1C[C@@H]2O[C@]2(C)CCC[C@H](C)[C@H](O)[C@@H](C)C(=O)C(C)(C)[C@@H](O)CC(=O)O1` [epothilone B], which “Effect with C. novyi-NT” value ([1]; 25 mg/kg QD × 4 (ip) with 3×108 C. novyi-NT spores) is on record?
A: +

Q: Which results are given for `CC(=O)O[C@H]1C(=O)[C@@]2(C)[C@H]([C@H](OC(=O)c3ccccc3)[C@]3(O)C[C@H](OC(=O)[C@H](O)[C@@H](NC(=O)c4ccccc4)c4ccccc4)C(C)=C1C3(C)C)[C@]1(OC(C)=O)CO[C@@H]1C[C@@H]2O` [paclitaxel]?
A: Effect with C. novyi-NT [1, 6]: 0; Effect with C. novyi-NT ([1]; 30 mg/kg × 1 (iv) with 3×108 C. novyi-NT spores iv): +; Effect alone ([1]; 15 mg/kg × 1 (iv)): 0; Effect alone ([1]; 30 mg/kg × 1 (iv)): 0

Q: Which results are given for `C=CC=CC(C)C(OC(N)=O)C(C)C(O)C(C)CC=CC(C)C(O)C(C)C=CC(O)CC1OC(=O)C(C)C(O)C1C` (single isomer, unassigned; (+)) [(+)-14-normethyldiscodermolide]?
A: Effect with C. novyi-NT [1, 6]: +; Effect alone ([1]; 15 mg/kg × 1 (iv)): +
